Measurements as given in patent US10166225B2, “Method for treating osteoporosis” (Exelixis, Inc., priority 2011, dated 2019).

How the values were obtained:
[1] = patients with metastatic castration resistant prostate cancer, regardless of prior bisphosphonates; cited from earlier work
[2] = system: human bone marrow-derived CD34+ osteoclast precursor cells; test: Osteoclast differentiation assay (secreted TRACP 5b at day 7); assay type: cell-based
Protocol: The study was performed in four parts. In the first part, human bone marrow-derived CD34+ osteoclast precursor cells were cultured on bovine bone slices for 7 days, after which the formed osteoclasts were quantitated by measuring tartrate-resistant acid phosphatase 5b activity (TRACP 5b) in the culture medium.
The objective of this study was to investigate the effects of Compound 1 selected by the Sponsor on differentiation and activity of human osteoclasts and mouse osteoblasts in vitro. The effects on osteoclasts were studied using a model where bone marrow-derived human osteoclast precursor cells are cultured on bovine bone slices for 7 days in conditions favouring osteoclast differentiation, and allowed to differentiate into bone-resorbing osteoclasts. After completion of osteoclast differentiation at day 7, the culture medium was removed and new culture medium favouring osteoclast activity was added into the wells. The mature osteoclasts were then cultured for an additional 3 days, allowing them to resorb bone. In the osteoclast differentiation assay, the test compounds and a reference inhibitor osteoprotegerin (OPG) were added into cultures at day 0. In the osteoclast activity assay, the test compounds and a reference inhibitor E64 were added into cultures at day 7. Seven concentrations in 8 replicates were tested in both assays. Tartrate-resistant acid phosphatase 5b activity (TRACP 5b) was measured from the culture medium collected at day 7 as an index of the number of osteoclasts formed in each well during the differentiation period. C-terminal cross-linked telopeptides of type I collagen (CTX) was measured from the culture medium collected at day 10 to quantitate bone resorption during days 7-10.
A human osteoclast culture system was developed for use in this study where CD34+ osteoclast precursor cells derived from human bone marrow (Poietics® Human Osteoclast Precursors, Lonza, Walkersville, USA) are cultured on bovine bone slices in the presence of appropriate growth factors, including M-CSF and RANK-ligand (Rissanen et al. 2009). The cells are first allowed to differentiate into mature bone-resorbing osteoclasts, and the formed osteoclasts are then allowed to resorb bone. The test and reference compounds are added into the cell cultures at the beginning of the differentiation and/or the resorption period, and their effects on the differentiation and/or resorbing activity of osteoclasts are determined.
Secreted TRACP 5b is determined from the culture medium after the differentiation period using a commercially available method (BoneTRAPÒ, IDS Ltd, Boldon, UK). Secreted TRACP 5b describes accurately the number of osteoclasts formed in each well during the differentiation period. CTX is determined from the culture medium after the resorption period using a commercially available method (CrossLapsÒ for cultures, IDS Ltd, Boldon, UK). CTX describes accurately the amount of bone collagen degradation products released into the culture medium in each well during the resorption period.
In this study, human bone marrow-derived CD34+ stem cells (10000 cells/well) were suspended in culture medium and allowed to attach to bovine bone slices in 96-well tissue culture plates. The culture medium (containing 10% FBS, OCP BulletKit® Lonza, Walkersville, USA) was supplemented with appropriate amounts of important growth factors favoring osteoclast differentiation and activity, including M-CSF (33 ng/ml, OCP BulletKit® Lonza, Walkersville, USA) and RANK-ligand (66 ng/ml, OCP BulletKit® Lonza, Walkersville, USA) in 200 μl of medium. The cells were incubated in a CO2 incubator in humidified atmosphere of 95% air and 5% carbon dioxide at 37° C. for 7 days. The test compounds and reference compound OPG were added at day 0. Supernatants collected at day 7 were stored at −70° C. until analysis of TRACP 5b. TRACP 5b was measured from the culture medium (20 μl/sample) using VICTOR2™ Multilabel Counter (PerkinElmer, Waltham, Mass., USA). […]

COc1cc2nccc(Oc3ccc(NC(=O)C4(C(=O)Nc5ccc(F)cc5)CC4)cc3)c2cc1OC [Compound 1, N-(4-{[6,7-bis(methyloxy)quinolin-4-yl]oxy}phenyl)-N′-(4-fluorophenyl)cyclopropane-1,1-dicarboxamide]
plasma CTx [1]: decrease | number of Hoechst and TRACP positive mononuclear cells (microscopic analysis) ([2]; 0.11 and 0.33 μM): did not affect | number of Hoechst and TRACP positive mononuclear cells (microscopic analysis) ([2]; 1.0 and 3.0 μM, effects at least partly cytotoxic): decreased | activity at 0.004 µM ([2]; Homo sapiens, Osteoclast, 168 h, 0.004 μM Compound 1, read-out: TRACP 5b Activity at Day 7, Percent Activity (%) Compared to BL): 85% | activity at 0.012 µM ([2]; Homo sapiens, Osteoclast, 168 h, 0.012 μM Compound 1, read-out: TRACP 5b Activity at Day 7, Percent Activity (%) Compared to BL): 80% | activity at 0.037 µM ([2]; Homo sapiens, Osteoclast, 168 h, 0.037 μM Compound 1, read-out: TRACP 5b Activity at Day 7, Percent Activity (%) Compared to BL): 74% | activity at 0.11 µM ([2]; Homo sapiens, Osteoclast, 168 h, 0.11 μM Compound 1, read-out: TRACP 5b Activity at Day 7, Percent Activity (%) Compared to BL): 45% | activity at 0.33 µM ([2]; Homo sapiens, Osteoclast, 168 h, 0.33 μM Compound 1, read-out: TRACP 5b Activity at Day 7, Percent Activity (%) Compared to BL): 15% | activity at 1 µM ([2]; Homo sapiens, Osteoclast, 168 h, 1.0 μM Compound 1, read-out: TRACP 5b Activity at Day 7, Percent Activity (%) Compared to BL): 4% | activity at 3 µM ([2]; Homo sapiens, Osteoclast, 168 h, 3.0 μM Compound 1, read-out: TRACP 5b Activity at Day 7, Percent Activity (%) Compared to BL): 0% | effect on osteoclast differentiation ([2]; significant with 0.11, 0.33, 1.0 and 3.0 μM concentrations): dose-dependent inhibition
